Entries after “also recorded” stand apart in the source; their conditions may differ.
Tests used:
Format in all cases: biochemical
human cardiac cytosol [1] = assay: Reconstitution of DOX metabolism and DOXol formation, plus or minus taxanes, in human cardiac cytosol; settings: for cytoplasmic conversion of DOX to doxorubicinol: human cardiac cytosol, n=3; for stimulation of DOXol formation (in words): [4Fe-4S]-depleted human cardiac cytosol, DOX 25 μM, taxane 1-50 μM, 4 h
From the text: (§1) The enzymes of DOX metabolism are strongly species-related. To avoid the potential pitfalls associated with studies in animal models, an in vitro human heart assay was utilized. The assay involves isolation of both cytosolic fractions generating DOXol, and microsomal fractions converting DOX to free radicals.
Reconstitution of DOX Metabolism and DOXol Formation, Plus or Minus Taxanes, in Human Cardiac Cytosol.
(§2) Human myocardium is obtained from patients undergoing aorto-coronary bypass grafting. All samples were routinely disposed of by the surgeons from the lateral aspect of excluded right atrium during cannulation procedures for cardio-pulmonary by-pass. After storage at −80° C., pools of 15-20 samples are processed for cytosol preparation by sequential homogenization, ultracentrifugation and overnight 65% ammonium sulfate precipitation of 105,000 g supernatants. Next, cytosol is dialyzed against 100 mM Tris HCl-40 mM KCl, pH 8.9, diluted to 3 mg protein/ml with the same buffer, and incubated for 15 minutes at room temperature with 100 mM dithiothreitol to promote non-denaturing disassembly of the [4Fe-4S] cluster of cytoplasmic aconitase. This treatment is necessary as reactions of DOXol with [4Fe-4S] clusters would convert this metabolite back to DOX. Sizable amounts of DOXol would therefore go undetected if they reacted with [4Fe-4S] clusters prior to their assay. Unreacted dithiothreitol was eventually removed by sequential gel filtration on (1.5×10 cm) Sepharose 6B columns, protein reprecipitation with 65% ammonium sulfate, and extensive dialysis against 0.3 M NaCl, pH 7.0. Doxorubicin metabolism was reconstituted in 0.5 ml incubations containing cytosol (0.15 mg protein), NADPH (100 μM) and DOX (25 μM), in 0.3 M NaCl (pH 7.0) 37° C. Where indicated ethanol-dissolved taxanes (1-50 μM) were included. Aliquots of taxane-free ethanol (5 μl) were included as appropriate to adjust the final volume to 10 μl in all incubations. After 4 h DOX and DOXol were extracted with 2 ml of CHCl3/CH3OH (1:1) and separated by previously validated two-dimensional TLC on (20×20 cm) […] F524 Silica Gel Plates, using CHCl3/CH3OH/CH3COOH/H2O (80:20:14:6) as mobile phase in either dimension. Doxorubicinol was identified by cochromatography with (S)-DOXol from Streptomyces peucetius or (S)(R)-DOXol purified after NaBH4 reduction of DOX. Where indicated incubations were prepared by replacing DOX with DOX aglycone and by measuring formation of DOXol aglycone. The latter was separated from DOX aglycone by using CHCl3/CH3OH/CH3COOH (100:2:5) and CH3COOC2H5—CH3CH2OH—CH3COOH—H2O (80:10:5:5) in the first and second dimension, respectively. DOX aglycone was purified after thermoacid hydrolysis of DOX.

human cardiac microsomes = assay: Superoxide anion formation (superoxide dismutase-inhibitable reduction of cytochrome c) by deoxycholate-solubilized human cardiac microsomes; settings: for generation of superoxide anion radicals in microsomal fractions: human cardiac microsomes, n=4-10; for effect of taxane on DOX-dependent superoxide anion formation (in words): DOX plus 10 μM taxane
Protocol: (§3) Reconstitution of DOX Metabolism and Free Radical Formation, Plus or Minus Taxanes, in Human Cardiac Microsomes.
(§4) 105,000 g pellets from human myocardium homogenates are solubilized with deoxycolate and reconstituted at the final concentration of 0.025 mg prot/ml with 10 μM DOX, 1-10 μM taxane, 0.1 mM NADPH, in 0.3 M NaCl, pH 7.0, 37° C.
(§5) Electron flow from NADPH cytochrome P-450 reductase to the quinone moiety of DOX is detected by monitoring NADPH oxidation. Redox coupling of the semiquinone with oxygen is detected by monitoring formation of the superoxide anion radical with the superoxide dismutase-inhibitable reduction of cytochrome c (25 μM). These assays are performed in a Hewlett Packard 8453A UV/VIS/NIR spectrometer equipped with computer-assisted corrections for scatter and turbidity.

human cardiac cytosol [2] = assay: Conversion of DOX aglycone into DOXol aglycone, plus or minus taxanes, in human cardiac cytosol; settings: for cytoplasmic conversion of doxorubicinone to doxorubicinolone: n=3; for stimulation of conversion of DOX aglycone into DOXol aglycone (in words): DOX aglycone in place of DOX, plus taxane
From the text: as §1, §2

[3] = system: NADPH cytochrome P-450 reductase; assay: NADPH oxidation by deoxycholate-solubilized microsomes of human heart, plus or minus taxanes; settings: 10 μM DOX, 1-10 μM taxane
Protocol: as §3, §4, §5

[4] = DOX alone, no taxane (baseline)
[5] = taxane 1 μM with doxorubicinone
[6] = deoxycholate-solubilized microsomes

SMILES | cytoplasmic conversion of DOX to doxorubicinol (human cardiac cytosol [1]; [4]) | generation of superoxide anion radicals in microsomal fractions (human cardiac microsomes; [4]) | effect of DOX on superoxide anion formation (in words) (human cardiac microsomes; deoxycholate-solubilized microsomes, DOX without taxane) | cytoplasmic conversion of doxorubicinone to doxorubicinolone (human cardiac cytosol [2]; doxorubicinone alone, no taxane (baseline)) | stimulation of DOXol formation (in words) (human cardiac cytosol [1]) | cytoplasmic conversion of DOX to doxorubicinol (human cardiac cytosol [1]; taxane 1 μM with DOX) | stimulation of conversion of DOX aglycone into DOXol aglycone (in words) (human cardiac cytosol [2]) | cytoplasmic conversion of doxorubicinone to doxorubicinolone (human cardiac cytosol [2]; [5]) | effect of taxane on DOX-dependent superoxide anion formation (in words) (human cardiac microsomes; [6]) | effect on NADPH oxidation in the presence of DOX (in words) [3] | generation of superoxide anion radicals in microsomal fractions (human cardiac microsomes; taxane 10 μM with DOX)
COc1cccc2c1C(=O)c1c(O)c3c(c(O)c1C2=O)C[C@@](O)(C(=O)CO)C[C@@H]3O[C@H]1C[C@H](N)[C@H](O)[C@H](C)O1 [DOX, doxorubicin] | 0.46±0.04 nmol/mg prot./4 h | 1.6±0.1 nmol/mg prot./min | able to enhance superoxide anion formation |  |  |  |  |  |  |  | 
COc1cccc2c1C(=O)c1c(O)c3c(c(O)c1C2=O)C[C@@](O)(C(=O)CO)C[C@@H]3O [doxorubicinone] |  |  |  | 0.8±0.1 nmol/mg prot./4 h |  |  |  |  |  |  | 
CC(=O)O[C@@]12CO[C@@H]1C[C@H](O)[C@@]1(C)C(=O)[C@H](O)C3=C(C)[C@@H](OC(=O)[C@H](O)[C@@H](NC(=O)OC(C)(C)C)c4ccccc4)C[C@@](O)([C@@H](OC(=O)c4ccccc4)[C@H]21)C3(C)C [DCT, docetaxel] |  |  |  |  | stimulate DOXol formation | 1.2±0.2 nmol/mg prot./4 h | able to stimulate the conversion of DOX aglycone into DOXol aglycone | 1.3±0.2 nmol/mg prot./4 h | significant increase in superoxide formation |  | 
CC(=O)O[C@H]1C(=O)[C@@]2(C)[C@H]([C@H](OC(=O)c3ccccc3)[C@]3(O)C[C@H](OC(=O)[C@H](O)[C@@H](NC(=O)c4ccccc4)c4ccccc4)C(C)=C1C3(C)C)[C@]1(OC(C)=O)CO[C@@H]1C[C@@H]2O [PTX, paclitaxel] |  |  |  |  | stimulate DOXol formation | 1.1±0.2 nmol/mg prot./4 h | able to stimulate the conversion of DOX aglycone into DOXol aglycone | 1.4±0.2 nmol/mg prot./4 h | significant increase in superoxide formation | able to stimulate NADPH oxidation | 2.2±0.2 nmol/mg prot./min
CSCO[C@H]1C[C@H]2OC[C@@]2(OC(C)=O)[C@H]2[C@H](OC(=O)c3ccccc3)[C@]3(O)C[C@H](OC(=O)[C@H](O)[C@@H](NC(=O)c4ccccc4)c4ccccc4)C(C)=C([C@@H](OC(C)=O)C(=O)[C@]12C)C3(C)C [7-methylthiomethyl taxol] |  |  |  |  | did not increase; also recorded: did not stimulate DOXol formation at any of the concentrations tested |  | did not increase; also recorded: has not been found to stimulate the formation of DOXol aglycone |  | did not increase; also recorded: did not afford any significant stimulation | appeared to inhibit NADPH oxidation | 

Source: patent US20020049169A1, “Method for reducing toxicity of combined chemotherapies” (priority 2000, published 2002)
